Where a name gives a salt, the structure may show the parent alone.
Molecular target: NLRP3 (Homo sapiens, UniProt Q96P20)
Test: THP-1 cells pyroptosis assay (LPS + nigericin, resazurin readout; THP IC50)
Type: cell-based
Parameters: Seed THP-1 cells (25,000 cells/well) containing 1.0 μg/ml LPS in 40 μl of RPMI medium; host or cells: THP-1 cells
Experimental: THP-1 cells (ATCC #TIB-202) were grown in RPMI containing L-glutamine (Gibco #11835) supplemented with 1 mM sodium pyruvate (Sigma #S8636) and penicillin (100 units/ml)/streptomycin (0.1 mg/ml) (Sigma #P4333) in 10% Fetal Bovine Serum (FBS) (Sigma #F0804). The cells were routinely passaged and grown to confluency (˜10^6 cells/ml). On the day of the experiment, THP-1 cells were harvested and resuspended into RPMI medium (without FBS). The cells were then counted and viability (>90%) checked by Trypan blue (Sigma #T8154). Appropriate dilutions were made to give a concentration of 625,000 cells/ml. To this diluted cell solution was added LPS (Sigma #L4524) to give a 1 μg/ml Final Assay Concentration (FAC). 40 μl of the final preparation was aliquoted into each well of a 96-well plate. The plate thus prepared was used for compound screening.
The following method step-by-step assay was followed for compound screening. • 1. Seed THP-1 cells (25,000 cells/well) containing 1.0 μg/ml LPS in 40 μl of RPMI medium (without FBS) in 96-well, black walled, clear bottom cell culture plates coated with poly-D-lysine (VWR #734-0317) • 2. Add 5 μcompound (8 points half-log dilution, with 10 μM top dose) or vehicle (DMSO 0.1% FAC) to the appropriate wells • 3. Incubate for 3 hrs at 37° C. and 5% CO2 • 4. Add 5 μnigericin (Sigma #N7143) (FAC 5 μM) to all wells • 5. Incubate for 1 hr at 37° C. and 5% CO2 • 6. At the end of the incubation period, spin plates at 300×g for 3 mins and remove supernatant • 7. Then add 50 μl of resazurin (Sigma #R7017) (FAC 100 μM resazurin in RPMI medium without FBS) and incubate plates for a further 1-2 hrs at 37° C. and 5% CO2 • 8. Plates were read in an Envision reader at Ex 560 nm and Em 590 nm • 9. IC50 data is fitted to a non-linear regression equation (log inhibitor vs response-variable slope 4-parameters)

Sequence of NLRP3 (Q96P20 whole entry): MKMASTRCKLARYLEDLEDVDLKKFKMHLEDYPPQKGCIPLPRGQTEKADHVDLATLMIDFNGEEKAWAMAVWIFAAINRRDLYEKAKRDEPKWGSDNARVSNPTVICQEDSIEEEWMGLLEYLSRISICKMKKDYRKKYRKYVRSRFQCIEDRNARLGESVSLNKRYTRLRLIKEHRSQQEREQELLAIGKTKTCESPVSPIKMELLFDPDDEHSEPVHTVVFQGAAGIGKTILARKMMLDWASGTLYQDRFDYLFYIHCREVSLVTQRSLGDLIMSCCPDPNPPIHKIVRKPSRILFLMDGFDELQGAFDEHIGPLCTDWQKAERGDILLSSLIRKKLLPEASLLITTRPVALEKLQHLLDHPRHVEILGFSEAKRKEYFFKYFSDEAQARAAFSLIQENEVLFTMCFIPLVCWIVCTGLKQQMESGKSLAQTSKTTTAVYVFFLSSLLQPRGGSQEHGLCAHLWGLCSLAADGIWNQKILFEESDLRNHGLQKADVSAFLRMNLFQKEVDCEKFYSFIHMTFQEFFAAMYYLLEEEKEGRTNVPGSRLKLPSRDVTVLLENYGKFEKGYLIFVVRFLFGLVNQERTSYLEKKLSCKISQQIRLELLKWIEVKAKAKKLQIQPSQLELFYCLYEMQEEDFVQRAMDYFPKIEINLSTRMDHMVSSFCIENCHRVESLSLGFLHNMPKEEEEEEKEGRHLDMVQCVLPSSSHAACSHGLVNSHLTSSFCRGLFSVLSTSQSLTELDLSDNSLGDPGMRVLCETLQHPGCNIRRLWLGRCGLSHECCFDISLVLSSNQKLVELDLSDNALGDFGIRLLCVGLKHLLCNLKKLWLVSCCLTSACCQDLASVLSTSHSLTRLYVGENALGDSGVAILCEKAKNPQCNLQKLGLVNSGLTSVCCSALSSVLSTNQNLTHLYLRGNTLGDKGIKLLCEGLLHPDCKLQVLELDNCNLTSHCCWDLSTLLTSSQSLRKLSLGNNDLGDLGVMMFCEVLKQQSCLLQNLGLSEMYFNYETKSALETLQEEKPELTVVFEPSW

IC50 [µM]	Structure (SMILES)
≤ 10	CC(C)c1cc(F)cc(-c2ccnc(C#N)c2)c1NC(=O)NS(=O)(=O)C1CN(C(C)C)C1 [Example 74, N-((2-(2-Cyanopyridin-4-yl)-4-fluoro-6-isopropylphenyl)carbamoyl)-1-isopropylazetidine-3-sulfonamide]
≤ 0.5	COc1cc(-c2cc(F)cc(C(C)C)c2NC(=O)NS(=O)(=O)C2CN(C(C)C)C2)ccn1 [Example 75, N-((4-Fluoro-2-isopropyl-6-(2-methoxypyridin-4-yl)phenyl)carbamoyl)-1-isopropylazetidine-3-sulfonamide]
≤ 10	CC(C)c1cc(F)cc(-c2ccnc(C#N)c2)c1NC(=O)NS(=O)(=O)C1CN(C2CCC2)C1 [Example 78, N-((2-(2-Cyanopyridin-4-yl)-4-fluoro-6-isopropylphenyl)carbamoyl)-1-cyclobutylazetidine-3-sulfonamide]
≤ 0.5	COc1cc(-c2cc(F)cc(C(C)C)c2NC(=O)NS(=O)(=O)C2CN(C3CCC3)C2)ccn1 [Example 79, 1-Cyclobutyl-N-((4-fluoro-2-isopropyl-6-(2-methoxypyridin-4-yl)phenyl)carbamoyl)azetidine-3-sulfonamide]
≤ 0.5	COc1cc(-c2ccc3c(c2NC(=O)NS(=O)(=O)C2CN(C4CCC4)C2)CCC3)ccn1 [Example 80, 1-Cyclobutyl-N-((5-(2-methoxypyridin-4-yl)-2,3-dihydro-1H-inden-4-yl)carbamoyl)azetidine-3-sulfonamide]
≤ 10	CCN1CC(S(=O)(=O)NC(=O)Nc2c(-c3ccnc(C#N)c3)cc(F)cc2C(C)C)C1 [Example 82, N-((2-(2-Cyanopyridin-4-yl)-4-fluoro-6-isopropylphenyl)carbamoyl)-1-ethylazetidine-3-sulfonamide]
≤ 1	CCN1CC(S(=O)(=O)NC(=O)Nc2c(-c3ccncc3)cc(F)c3c2CCC3)C1 [Example 85, 1-Ethyl-N-((7-fluoro-5(pyridin-4-yl)-2,3-dihydro-1H-inden-4-yl)carbamoyl)azetidine-3-sulfonamide]
≤ 10	CC(C)c1cc(F)cc(-c2ccnc(C#N)c2)c1NC(=O)NS(=O)(=O)C1CN(Cc2cccnc2)C1 [Example 86, N-((2-(2-Cyanopyridin-4-yl)-4-fluoro-6-isopropylphenyl)carbamoyl)-1-(pyridin-3-ylmethyl)azetidine-3-sulfonamide]
≤ 1	O=C(Nc1c(-c2ccncc2)cc(F)c2c1CCC2)NS(=O)(=O)C1CN(Cc2cccnc2)C1 [Example 88, N-((7-Fluoro-5-(pyridin-4-yl)-2,3-dihydro-1H-inden-4-yl)carbamoyl)-1-(pyridin-3-ylmethyl)azetidine-3-sulfonamide]
≤ 0.5	CC(C)c1cc(F)cc(-c2ccnc(C#N)c2)c1NC(=O)NS(=O)(=O)c1ccc(=O)n(C(C)C)c1 [Example 89, N-((2-(2-cyanopyridin-4-yl)-4-fluoro-6-isopropylphenyl)carbamoyl)-1-isopropyl-6-oxo-1,6-dihydropyridine-3-sulfonamide]
≤ 0.5	COc1cc(-c2cc(F)cc(C(C)C)c2NC(=O)NS(=O)(=O)c2ccc(=O)n(C(C)C)c2)ccn1 [Example 90, N-((4-Fluoro-2-isopropyl-6-(2-methoxypyridin-4-yl)phenyl)carbamoyl)-1-isopropyl-6-oxo-1,6-dihydropyridine-3-sulfonamide]
≤ 10	CC(C)c1cc(F)cc(-c2cccnc2)c1NC(=O)NS(=O)(=O)C1CCN(C(C)C)CC1 [Example 93, N-((4-Fluoro-2-isopropyl-6-(pyridin-3-yl)phenyl)carbamoyl)-1-isopropylpiperidine-4-sulfonamide]
≤ 10	CCN1CCC(S(=O)(=O)NC(=O)Nc2c(-c3ccnc(C#N)c3)ccc3c2CCC3)CC1 [Example 99, N-((5-(2-Cyanopyridin-4-yl)-2,3-dihydro-1H-inden-4-yl)carbamoyl)-1-ethylpiperidine-4-sulfonamide, potassium salt]
≤ 5	CCN1CCC(S(=O)(=O)NC(=O)Nc2c(-c3ccnc(OC)c3)cc(F)cc2C(C)C)CC1 [Example 100, 1-Ethyl-N-((4-fluoro-2-isopropyl-6-(2-methoxypyridin-4-yl)phenyl)carbamoyl)piperidine-4-sulfonamide, potassium salt]
≤ 0.5	CC(C)c1cc(F)cc(-c2ccnc(C#N)c2)c1NC(=O)NS(=O)(=O)c1cncc(N(C)C)n1 [Example 102, N-((2-(2-Cyanopyridin-4-yl)-4-fluoro-6-isopropylphenyl)carbamoyl)-6-(dimethylamino)pyrazine-2-sulfonamide]
≤ 0.5	COc1cc(-c2cc(F)cc(C(C)C)c2NC(=O)NS(=O)(=O)c2cnc(N(C)C)cn2)ccn1 [Example 107, 5-(Dimethylamino)-N-((4-fluoro-2-isopropyl-6-(2-methoxypyridin-4-yl)phenyl)carbamoyl)pyrazine-2-sulfonamide]
≤ 10	CC(C)c1cc(F)cc(-c2ccnc(C#N)c2)c1NC(=O)NS(=O)(=O)c1nccnc1C(F)F [Example 110, N-((2-(2-Cyanopyridin-4-yl)-4-fluoro-6-isopropylphenyl)carbamoyl)-3-(difluoromethyl)pyrazine-2-sulfonamide]
≤ 5	COc1cc(-c2cc(F)cc(C(C)C)c2NC(=O)NS(=O)(=O)c2nccnc2C(F)F)ccn1 [Example 111, 3-(Difluoromethyl)-N-((4-fluoro-2-isopropyl-6-(2-methoxypyridin-4-yl)phenyl)carbamoyl)pyrazine-2-sulfonamide]
≤ 1	COc1cc(-c2ccc3c(c2NC(=O)NS(=O)(=O)c2nccnc2C(F)F)CCC3)ccn1 [Example 112, 3-(Difluoromethyl)-N-((5-(2-methoxypyridin-4-yl)-2,3-dihydro-1H-inden-4-yl)carbamoyl)pyrazine-2-sulfonamide]
≤ 5	O=C(Nc1c(-c2ccncc2)cc(F)c2c1CCC2)NS(=O)(=O)c1nccnc1C(F)F [Example 113, 3-(Difluoromethyl)-N-((7-fluoro-5-(pyridin-4-yl)-2,3-dihydro-1H-inden-4-yl)carbamoyl)pyrazine-2-sulfonamide]
≤ 0.5	COc1cc(-c2cc(F)cc(C(C)C)c2NC(=O)NS(=O)(=O)c2nc(C)cc(C)n2)ccn1 [Example 115, N-((4-Fluoro-2-isopropyl-6-(2-methoxypyridin-4-yl)phenyl)carbamoyl)-4,6-dimethylpyrimidine-2-sulfonamide]
≤ 10	CC(C)c1cc(F)cc(-c2ccnc(C#N)c2)c1NC(=O)NS(=O)(=O)Cc1ccccc1 [Example 127, N-((2-(2-Cyanopyridin-4-yl)-4-fluoro-6-isopropylphenyl)carbamoyl)-1-phenylmethanesulfonamide]
≤ 1	COc1cc(-c2cc(F)cc(C(C)C)c2NC(=O)NS(=O)(=O)Cc2ccccc2)ccn1 [Example 128, N-((4-Fluoro-2-isopropyl-6-(2-methoxypyridin-4-yl)phenyl)carbamoyl)-1-phenylmethanesulfonamide]
≤ 5	COc1cc(-c2ccc3c(c2NC(=O)NS(=O)(=O)Cc2ccccc2)CCC3)ccn1 [Example 129, N-((5-(2-Methoxypyridin-4-yl)-2,3-dihydro-1H-inden-4-yl)carbamoyl)-1-phenylmethanesulfonamide]

Structure (SMILES)	IC50 [µM]
CCN1CCC(S(=O)(=O)NC(=O)Nc2c(-c3ccnc(OC)c3)cc(F)c3c2CCC3)CC1 [Example 97, 1-Ethyl-N-((7-fluoro-5-(2-methoxypyridin-4-yl)-2,3-dihydro-1H-inden-4-yl)carbamoyl)piperidine-4-sulfonamide, potassium salt]	≤ 5
